US9822114B2, “Tricyclic oxazolidinone antibiotic compounds” (Idorsia Pharmaceuticals Ltd, priority 2008, dated 2017)

System: M. catarrhalis A894
Assay: Minimal inhibitory concentration (MIC), microdilution method in cation-adjusted Mueller-Hinton Broth (CLSI M7-A7)
Assay type: cell-based
Details: strain A894; for MIC: Moraxella catarrhalis
Protocol: Minimal inhibitory concentrations (MICs; mg/1) were determined in cation-adjusted Mueller-Hinton Broth by a microdilution method following the description given in “Methods for Dilution Antimicrobial Susceptibility Tests for Bacteria that Grow Aerobically”, Approved standard, 7th ed., Clinical and Laboratory Standards Institute (CLSI) Document M7-A7, Wayne, Pa., USA, 2006.

| MIC | MIC for M. catarrhalis A894 | SMILES |
| --- | --- | --- |
| ≤ 0.031 µg/mL |  | O=C1CSc2ccc(N3C[C@@H](CCCN[C@@H]4Cn5c(=O)cnc6cccc4c65)OC3=O)cc2N1 [Example 48, (S)-6-{3-[(R)-2-oxo-3-(3-oxo-3,4-dihydro-2H-benzo[1,4]thiazin-6-yl)-oxazolidin-5-yl]-propylamino}-5,6-dihydro-pyrrolo[1,2,3-de]quinoxalin-3-one] |
|  | ≦0.031 mg/l | O=C1CSc2ccc(N3C[C@H](CCCN[C@@H]4Cn5c(=O)ccc6ccc(F)c4c65)OC3=O)nc2N1 [Example 191, (S)-9-fluoro-1-{3-[(S)-2-oxo-3-(3-oxo-3,4-dihydro-2H-pyrido[3,2-b][1,4]thiazin-6-yl)-oxazolidin-5-yl]-propylamino}-1,2-dihydro-pyrrolo[3,2,1-U]quinolin-4-one] |
| 0.063 µg/mL |  | O=C1CSc2ccc(N3C[C@H](CCNC4Cn5c(=O)ccc6ncc(F)c4c65)OC3=O)cc2N1 (mixture of isomers) [Example 84, (RS)-3-fluoro-4-{2-[(S)-2-oxo-3-(3-oxo-3,4-dihydro-2H-benzo[1,4]thiazin-6-yl)-oxazolidin-5-yl]-ethylamino}-4,5-dihydro-pyrrolo[3,2,1-de][1,5]naphthyridin-7-one] |
| ≤ 0.031 µg/mL |  | O=C1COc2ccc(N3C[C@@H](CCCN[C@H]4Cn5c(=O)cnc6cccc4c65)OC3=O)cc2N1 [Example 65, (R)-6-{3-[(R)-2-oxo-3-(3-oxo-3,4-dihydro-2H-benzo[1,4]oxazin-6-yl)-oxazolidin-5-yl]-propylamino}-5,6-dihydro-pyrrolo[1,2,3-de]quinoxalin-3-one] |
| ≤ 0.031 µg/mL |  | O=C1COc2ccc(N3C[C@@H](CCCNCC4Cn5c(=O)ccc6ccc(F)c4c65)OC3=O)cc2N1 (mixture of isomers) [Example 52, (RS)-9-fluoro-1-({3-[(R)-2-oxo-3-(3-oxo-3,4-dihydro-2H-benzo[1,4]oxazin-6-yl)-oxazolidin-5-yl]-propylamino}-methyl)-1,2-dihydro-pyrrolo[3,2,1-ij]quinolin-4-one] |
| ≤ 0.031 µg/mL |  | O=C1CSc2ccc(N3C[C@H](CCNCC4Cn5c(=O)ccc6cccc4c65)OC3=O)nc2N1 (mixture of isomers) [Example 176, (RS)-1-({2-[(S)-2-oxo-3-(3-oxo-3,4-dihydro-2H-pyrido[3,2-b][1,4]thiazin-6-yl)-oxazolidin-5-yl]-ethylamino}-methyl)-1,2-dihydro-pyrrolo[3,2,1-ij]quinolin-4-one] |
| ≤ 0.031 µg/mL |  | O=C1CSc2ccc(N3C[C@H](CNCCC4Cn5c(=O)ccc6ncc(F)c4c65)OC3=O)cc2N1 (mixture of isomers) [Example 16, (4RS)-3-fluoro-4-(2-{[(S)-2-oxo-3-(3-oxo-3,4-dihydro-2H-benzo[1,4]thiazin-6-yl)-oxazolidin-5-ylmethyl]-amino}-ethyl)-4,5-dihydro-pyrrolo[3,2,1-de][1,5]naphthyridin-7-one] |
| ≤ 0.031 µg/mL |  | O=C1COc2ccc(N3C[C@H](CCCN[C@@H]4Cn5c(=O)ccc6ncc(F)c4c65)OC3=O)nc2N1 [Example 151, (S)-3-fluoro-4-{3-[(S)-2-oxo-3-(3-oxo-3,4-dihydro-2H-pyrido[3,2-b][1,4]oxazin-6-yl)-oxazolidin-5-yl]-propylamino}-4,5-dihydro-pyrrolo[3,2,1-de][1,5]naphthyridin-7-one] |
| ≤ 0.031 µg/mL |  | O=C1CSc2ccc(N3C[C@H](CCCN[C@H]4Cn5c(=O)ccc6ncc(F)c4c65)OC3=O)cc2N1 [Example 139, (R)-3-fluoro-4-{3-[(S)-2-oxo-3-(3-oxo-3,4-dihydro-2H-benzo[1,4]thiazin-6-yl)-oxazolidin-5-yl]-propylamino}-4,5-dihydro-pyrrolo[3,2,1-de][1,5]naphthyridin-7-one] |
| ≤ 0.031 µg/mL |  | O=C1COc2ccc(N3C[C@@H](CCCN[C@H]4Cn5c(=O)cnc6cccc4c65)OC3=O)nc2N1 [Example 75, (R)-6-{3-[(R)-2-oxo-3-(3-oxo-3,4-dihydro-2H-pyrido[3,2-b][1,4]oxazin-6-yl)-oxazolidin-5-yl]-propylamino}-5,6-dihydro-pyrrolo[1,2,3-de]quinoxalin-3-one] |
